As a reminder, the IC50 is the concentration that gives 50% inhibition.

IC50 data for 14 compounds are collected here from patent publication US11965039B2, “Compstatin analogues and their medical uses” (priority 2018, dated 2024).

Structures are written as SMILES. Read-outs that look alike come from different tables or passages of the source. Starred links: 1 amine or outer side, 2 acyl side, 3 side chain; linkers in the order of their positions; H or OH if unused. Positions of bridges follow the written chain, without caps; N, C: chain ends. Non-standard residues stand in square brackets, D forms with d. Residues, ends and D or L forms follow the SMILES beside them. Groups on a side chain read outwards from the residue. *: point of attachment. Trp(1-Me) = Cn1cc(C[C@H](N)C(=O)O)c2ccccc21; C18 diacid = O=C(O)CCCCCCCCCCCCCCCCC(=O)*; C16 diacid = O=C(O)CCCCCCCCCCCCCCC(=O)*; γGlu = O=C(O)[C@H](CCC(=O)[*:2])N[*:1]; AEEA = NCCOCCOCC(=O)O; Sar = CNCC(=O)O

The test deals with classical complement pathway. Description: In vitro haemolysis assay (inhibition of classical complement pathway). Type of test: cell-based, human. As to conditions: human serum, sensitized sheep red blood cells. The essentials: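 Compound dilutions preincubated 15 min at room temperature with diluted human serum (titrated per batch for 70-90% maximal haemolysis), then antibody-sensitized sheep RBC (10^7/well) added for 30 min at 37 °C in Tris/casein buffer, pH 7.4. Stopped with EDTA; haemolysis read at 405 nm; IC50 by 4PL fit.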

Setting [1] is: Table 3, given as upper bounds, read-out: IC50, inhibition of hemolysis.
Where [2] appears, read: Table 4, valine 3 vs isoleucine 3 pairs, read-out: CP hemolysis IC50.

In the case of `CC[C@H](C)[C@@H]1NC(=O)[C@@H](NC(=O)[C@H](Cc2ccc(O)cc2)NC(C)=O)CSSC[C@@H](C(=O)N[C@H](C(=O)N[C@@H](CCC(=O)O)C(=O)N[C@@H](CO)C(=O)NCC(=O)N[C@@H](C)C(N)=O)[C@@H](C)O)NC(=O)[C@H](CCCNC(=N)N)NC(=O)[C@H](Cc2c[nH]cn2)NC(=O)[C@H](CCC(=O)O)NC(=O)CNC(=O)[C@H](Cc2c[nH]c3ccccc23)NC(=O)[C@H](CC(=O)O)NC(=O)[C@H](CCC(N)=O)NC(=O)[C@H](Cc2cn(C)c3ccccc23)NC1=O` [Compound 69] (Ac-YCI[Trp(1-Me)]QDWGEHRCTESGA-NH2; disulfide 2-12), under setting [1], the IC50 was less than 100 nM.

`CC[C@H](C)[C@H](NC(C)=O)C(=O)N[C@H]1CSSC[C@@H](C(=O)N[C@H](C(N)=O)[C@@H](C)O)NC(=O)[C@H](CO)NC(=O)[C@H](Cc2c[nH]cn2)NC(=O)[C@H](C)NC(=O)CNC(=O)[C@H](Cc2c[nH]c3ccccc23)NC(=O)[C@H](CC(=O)O)NC(=O)[C@H](CCC(N)=O)NC(=O)[C@H](Cc2c[nH]c3ccccc23)NC(=O)[C@H]([C@@H](C)CC)NC1=O` [Compound 19] (Ac-ICIWQDWGAHSCT-NH2; disulfide 2-12): the IC50 reads like this: under setting [1], less than 250 nM; under setting [2], 140 nM.

Consider `CC[C@H](C)[C@H](NC(=O)CNC(=O)[C@H](CCCCN)NC(=O)[C@H](CCC(=O)O)NC(C)=O)C(=O)N[C@H]1CSSC[C@@H](C(=O)N[C@H](C(=O)N[C@@H](CCC(=O)O)C(=O)N[C@@H](CCCCN)C(=O)N2CCC[C@H]2C(N)=O)[C@@H](C)O)NC(=O)[C@H](CCCNC(=N)N)NC(=O)[C@H](Cc2c[nH]cn2)NC(=O)[C@H](CCC(=O)O)NC(=O)CNC(=O)[C@H](Cc2c[nH]c3ccccc23)NC(=O)[C@H](CC(=O)O)NC(=O)[C@H](CCC(N)=O)NC(=O)[C@H](Cc2c[nH]c3ccccc23)NC(=O)[C@H]([C@@H](C)CC)NC1=O` [Compound 38] (Ac-EKGICIWQDWGEHRCTEKP-NH2; disulfide 5-15), for which, under setting [1], the IC50 is less than 250 nM.

With `CC[C@H](C)[C@H](NC(C)=O)C(=O)N[C@H]1CSSC[C@@H](C(=O)N[C@@H](CO)C(N)=O)NC(=O)[C@H](CCCNC(=N)N)NC(=O)[C@H](Cc2c[nH]cn2)NC(=O)[C@H](CCC(=O)O)NC(=O)CNC(=O)[C@H](Cc2c[nH]c3ccccc23)NC(=O)[C@H](CC(=O)O)NC(=O)[C@H](CCC(N)=O)NC(=O)[C@H](Cc2c[nH]c3ccccc23)NC(=O)[C@H](C(C)C)NC1=O` [G, reference compound] (Ac-ICVWQDWGEHRCS-NH2; disulfide 2-12), the IC50 under setting [2] came out at 180 nM.

`CC[C@H](C)[C@@H]1NC(=O)[C@@H](NC(=O)[C@H](Cc2ccccc2)NC(=O)[C@H](CCC(=O)O)NC(=O)[C@H](CO)NC(C)=O)CSSC[C@@H](C(=O)N[C@H](C(=O)N[C@@H](CCC(=O)O)C(=O)NCC(=O)N[C@@H](CCC(=O)O)C(=O)NCC(=O)NCC(=O)NCC(=O)N[C@@H](CCCCNC(=O)CC[C@H](NC(=O)CNC(=O)CC[C@H](NC(=O)CCCCCCCCCCCCCCC(=O)O)C(=O)O)C(=O)O)C(N)=O)[C@@H](C)O)NC(=O)[C@H](CCCNC(=N)N)NC(=O)[C@H](Cc2c[nH]cn2)NC(=O)[C@H](CCC(=O)O)NC(=O)CNC(=O)[C@H](Cc2c[nH]c3ccccc23)NC(=O)[C@H](CC(=O)O)NC(=O)[C@H](CCC(N)=O)NC(=O)[C@H](Cc2cn(C)c3ccccc23)NC1=O` [Compound 131] (Ac-SEFCI[Trp(1-Me)]QDWGEHRCTEGEGGGK([γGlu-Gly-γGlu-C16 diacid])-NH2; disulfide 4-14): under setting [1], the concentration for half-maximal inhibition (IC50) is less than 100 nM.

As for `CC[C@H](C)[C@@H]1NC(=O)[C@@H](NC(=O)[C@H](Cc2ccccc2)NC(=O)[C@H](CCC(=O)O)NC(=O)[C@H](CO)NC(C)=O)CSSC[C@@H](C(=O)N(C)CC(=O)N[C@@H](CCC(=O)O)C(=O)NCC(=O)N[C@@H](CCC(=O)O)C(=O)NCCOCCOCC(=O)N[C@@H](CCC(=O)O)C(=O)N[C@@H](CO)C(=O)N[C@@H](CCCCNC(=O)CC[C@H](NC(=O)CNC(=O)CC[C@H](NC(=O)CCCCCCCCCCCCCCCCC(=O)O)C(=O)O)C(=O)O)C(N)=O)NC(=O)[C@H](CCCNC(=N)N)NC(=O)[C@H](Cc2c[nH]cn2)NC(=O)[C@H](CCC(=O)O)NC(=O)CNC(=O)[C@H](Cc2c[nH]c3ccccc23)NC(=O)[C@H](CC(=O)O)NC(=O)[C@H](CCC(N)=O)NC(=O)[C@H](Cc2cn(C)c3ccccc23)NC1=O` [Compound 140] (Ac-SEFCI[Trp(1-Me)]QDWGEHRC[Sar]EGE[AEEA]ESK([γGlu-Gly-γGlu-C18 diacid])-NH2; disulfide 4-14), the IC50 under setting [1] was less than 100 nM.

On to `CC[C@H](C)[C@H](NC(C)=O)C(=O)N[C@H]1CSSC[C@@H](C(=O)N[C@H](C(N)=O)[C@@H](C)O)NC(=O)[C@H](CCCNC(=N)N)NC(=O)[C@H](Cc2c[nH]cn2)NC(=O)[C@H](C)NC(=O)CNC(=O)[C@H](Cc2c[nH]c3ccccc23)NC(=O)[C@H](CC(=O)O)NC(=O)[C@H](CCC(N)=O)NC(=O)[C@H](Cc2c[nH]c3ccccc23)NC(=O)[C@H](C(C)C)NC1=O` [Compound 4W9A, reference compound], for which the concentration for half-maximal inhibition (IC50) is 250 nM (Table 2, read-out: CP hemolysis IC50) and less than 500 nM under setting [1].

For the compound `CC[C@H](C)[C@H](NC(C)=O)C(=O)N[C@H]1CSSC[C@@H](C(=O)N[C@H](C(N)=O)[C@@H](C)O)NC(=O)[C@H](CCCNC(=N)N)NC(=O)[C@H](Cc2c[nH]cn2)NC(=O)[C@H](CCC(=O)O)NC(=O)CNC(=O)[C@H](Cc2c[nH]c3ccccc23)NC(=O)[C@H](CC(=O)O)NC(=O)[C@H](CCC(N)=O)NC(=O)[C@H](Cc2cn(C)c3ccccc23)NC(=O)[C@H]([C@@H](C)CC)NC1=O` [Compound 4] (Ac-ICI[Trp(1-Me)]QDWGEHRCT-NH2; disulfide 2-12), the IC50 under setting [1] is less than 100 nM.

As for `CC[C@H](C)[C@@H]1NC(=O)[C@@H](NC(=O)[C@H](Cc2ccccc2)NC(=O)[C@H](CCC(=O)O)NC(=O)[C@H](CO)NC(C)=O)CSSC[C@@H](C(=O)N(C)CC(=O)N[C@@H](CCC(=O)O)C(=O)NCC(=O)N[C@@H](CCC(=O)O)C(=O)NCCOCCOCC(=O)NCCOCCOCC(=O)NCCOCCOCC(=O)N[C@@H](CCCCNC(=O)CC[C@H](NC(=O)CNC(=O)CC[C@H](NC(=O)CCCCCCCCCCCCCCCCC(=O)O)C(=O)O)C(=O)O)C(N)=O)NC(=O)[C@H](CCCNC(=N)N)NC(=O)[C@H](Cc2c[nH]cn2)NC(=O)[C@H](CCC(=O)O)NC(=O)CNC(=O)[C@H](Cc2c[nH]c3ccccc23)NC(=O)[C@H](CC(=O)O)NC(=O)[C@H](CCC(N)=O)NC(=O)[C@H](Cc2cn(C)c3ccccc23)NC1=O` [Compound 143] (Ac-SEFCI[Trp(1-Me)]QDWGEHRC[Sar]EGE[AEEA][AEEA][AEEA]K([γGlu-Gly-γGlu-C18 diacid])-NH2; disulfide 4-14), the IC50 under setting [1] was less than 100 nM.

For the compound `CC[C@H](C)[C@@H]1NC(=O)[C@@H](NC(=O)CN(C)C(=O)[C@H](CCC(=O)O)NC(=O)[C@H](CO)NC(C)=O)CSSC[C@@H](C(=O)N[C@H](C(=O)N[C@@H](CCC(=O)O)C(=O)N[C@@H](C)C(N)=O)[C@@H](C)O)NC(=O)[C@H](CCCNC(=N)N)NC(=O)[C@H](Cc2c[nH]cn2)NC(=O)[C@H](CCC(=O)O)NC(=O)CNC(=O)[C@H](Cc2c[nH]c3ccccc23)NC(=O)[C@H](CC(=O)O)NC(=O)[C@H](CCC(N)=O)NC(=O)[C@H](Cc2cn(C)c3ccccc23)NC1=O` [Compound 82] (Ac-SE[Sar]CI[Trp(1-Me)]QDWGEHRCTEA-NH2; disulfide 4-14), under setting [1], the IC50 is less than 100 nM.

With `CC[C@H](C)[C@@H]1NC(=O)[C@@H](NC(=O)[C@H](Cc2ccccc2)NC(=O)[C@H](CCC(=O)O)NC(=O)[C@H](CO)NC(C)=O)CSSC[C@@H](C(=O)N(C)CC(=O)N[C@@H](CCC(=O)O)C(=O)N[C@@H](C)C(N)=O)NC(=O)[C@H](CCCNC(=N)N)NC(=O)[C@H](Cc2c[nH]cn2)NC(=O)[C@H](CCC(=O)O)NC(=O)CNC(=O)[C@H](Cc2c[nH]c3ccccc23)NC(=O)[C@H](CC(=O)O)NC(=O)[C@H](CCC(N)=O)NC(=O)[C@H](Cc2cn(C)c3ccccc23)NC1=O` [Compound 75] (Ac-SEFCI[Trp(1-Me)]QDWGEHRC[Sar]EA-NH2; disulfide 4-14), under setting [1], the IC50 was less than 100 nM.

As to `CC[C@H](C)[C@H](NC(C)=O)C(=O)N[C@H]1CSSC[C@@H](C(=O)N[C@H](C(N)=O)[C@@H](C)O)NC(=O)[C@H](CO)NC(=O)[C@H](Cc2c[nH]cn2)NC(=O)[C@H](CCC(=O)O)NC(=O)CNC(=O)[C@H](Cc2c[nH]c3ccccc23)NC(=O)[C@H](CC(=O)O)NC(=O)[C@H](CCC(N)=O)NC(=O)[C@H](Cc2c[nH]c3ccccc23)NC(=O)[C@H]([C@@H](C)CC)NC1=O` [Compound 20] (Ac-ICIWQDWGEHSCT-NH2; disulfide 2-12), the IC50 by setting is: under setting [1], less than 100 nM; under setting [2], 59 nM.

`CC[C@H](C)[C@@H]1NC(=O)[C@@H](NC(=O)[C@@H](NC(=O)[C@H](CCC(=O)O)NC(C)=O)[C@@H](C)CC)CSSC[C@@H](C(=O)N[C@H](C(=O)N[C@@H](CCC(=O)O)C(=O)NCC(=O)N[C@@H](CCC(=O)O)C(N)=O)[C@@H](C)O)NC(=O)[C@H](CCCNC(=N)N)NC(=O)[C@H](Cc2c[nH]cn2)NC(=O)[C@H](CCC(=O)O)NC(=O)CNC(=O)[C@H](Cc2c[nH]c3ccccc23)NC(=O)[C@H](CC(=O)O)NC(=O)[C@H](CCC(N)=O)NC(=O)[C@H](Cc2c[nH]c3ccccc23)NC1=O` [Compound 34] (Ac-EICIWQDWGEHRCTEGE-NH2; disulfide 3-13): the IC50 under setting [1] was less than 250 nM.

Regarding `CC[C@H](C)[C@@H]1NC(=O)[C@@H](NC(=O)[C@H](Cc2ccccc2)NC(=O)[C@H](CCC(=O)O)NC(=O)[C@H](CO)NC(C)=O)CSSC[C@@H](C(=O)N(C)CC(=O)N[C@@H](CCC(=O)O)C(=O)NCC(=O)N[C@@H](CCC(=O)O)C(=O)NCC(=O)NCC(=O)NCC(=O)N[C@@H](CCCCNC(=O)CC[C@H](NC(=O)CNC(=O)CC[C@H](NC(=O)CCCCCCCCCCCCCCCCC(=O)O)C(=O)O)C(=O)O)C(N)=O)NC(=O)[C@H](CCCNC(=N)N)NC(=O)[C@H](Cc2c[nH]cn2)NC(=O)[C@H](CCC(=O)O)NC(=O)CNC(=O)[C@H](Cc2c[nH]c3ccccc23)NC(=O)[C@H](CC(=O)O)NC(=O)[C@H](CCC(N)=O)NC(=O)[C@H](Cc2cn(C)c3ccccc23)NC1=O` [Compound 129] (Ac-SEFCI[Trp(1-Me)]QDWGEHRC[Sar]EGEGGGK([γGlu-Gly-γGlu-C18 diacid])-NH2; disulfide 4-14), the IC50 under setting [1] was less than 100 nM.
